Reference: PubChem BioAssay (NCI)
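Growth conditions: 96-well plates. Treatment: test compound, 48 hours, 5 concentrations. Analysis: linear interpolation between bracketing concentrations; unreached endpoints set to highest concentration. TGI marks complete inhibition of growth.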

Legend:
Test in all cases: DTP human tumour cell line panel, 48 h
UACC-62 melanoma = test system: UACC-62 melanoma
HOP-18 NSCLC = test system: HOP-18 NSCLC
KM20L2 colon = test system: KM20L2 colon
KM12 colon = test system: KM12 colon
A549 NSCLC = test system: A549 NSCLC
COLO 205 colon = test system: COLO 205 colon
786-0 renal = test system: 786-0 renal
A498 renal = test system: A498 renal
DMS 273 small cell lung = test system: DMS 273 small cell lung
SNB-78 CNS = test system: SNB-78 CNS
M14 melanoma = test system: M14 melanoma
SK-MEL-5 melanoma = test system: SK-MEL-5 melanoma
SK-MEL-28 melanoma = test system: SK-MEL-28 melanoma
SK-MEL-2 melanoma = test system: SK-MEL-2 melanoma
LXFL 529 NSCLC = test system: LXFL 529 NSCLC
UACC-257 melanoma = test system: UACC-257 melanoma
DMS 114 small cell lung = test system: DMS 114 small cell lung
NCI-H226 lung = test system: NCI-H226 lung
TK-10 renal = test system: TK-10 renal
SNB-75 CNS = test system: SNB-75 CNS
K-562 leukemia = test system: K-562 leukemia
NCI-H460 lung = test system: NCI-H460 lung
M19-MEL melanoma = test system: M19-MEL melanoma
SW-620 colon = test system: SW-620 colon
U251 CNS = test system: U251 CNS
RXF 393 renal = test system: RXF 393 renal
SK-OV-3 ovarian = test system: SK-OV-3 ovarian
HOP-62 NSCLC = test system: HOP-62 NSCLC
HCT-15 colon = test system: HCT-15 colon
SR leukemia = test system: SR leukemia
OVCAR-8 ovarian = test system: OVCAR-8 ovarian
UO-31 renal = test system: UO-31 renal
SN12C renal = test system: SN12C renal
OVCAR-5 ovarian = test system: OVCAR-5 ovarian
ACHN renal = test system: ACHN renal
OVCAR-3 ovarian = test system: OVCAR-3 ovarian
NCI-H522 lung = test system: NCI-H522 lung
IGROV1 ovarian = test system: IGROV1 ovarian
SF-539 CNS = test system: SF-539 CNS
CCRF-CEM leukemia = test system: CCRF-CEM leukemia
NCI-H23 lung = test system: NCI-H23 lung
LOX IMVI melanoma = test system: LOX IMVI melanoma
HT29 colon = test system: HT29 colon
MALME-3M melanoma = test system: MALME-3M melanoma
SF-268 CNS = test system: SF-268 CNS
EKVX NSCLC = test system: EKVX NSCLC
HL-60(TB) leukemia = test system: HL-60(TB) leukemia
HCT-116 colon = test system: HCT-116 colon
SNB-19 CNS = test system: SNB-19 CNS
HCC-2998 colon = test system: HCC-2998 colon
DLD-1 colon = test system: DLD-1 colon
MOLT-4 leukemia = test system: MOLT-4 leukemia

Measured: TGI

CC1CC2=C(C(=O)O1)C(c1ccccc1)Nc1ccccc1N2 (configuration not stated)
> 100 µM: all assays above
